Experimental data as given in US20040191842A1, “Chemopreventive and therapeutic aspects of polyphenolic compositions and assays” (Medical College of Georgia Research Institute, Inc., priority 2002, published 2004).
“Also recorded” adds a separate entry of the source.

How the values were obtained:
NHEK = test: Light microscopy of NHEK grown alone; format: cell-based, human; conditions: 100 μM EGCG, 24 hour
NS-SV-AC cells = test: Intracellular ROS levels (DFDA assay), NS-SV-AC cells; format: cell-based, human; conditions: EGCG 15-200 μM, 60 minutes
Procedure: Measurement of intracellular ROS levels. The ROS assay measures the accumulation of intracellular ROS levels. The non-fluorescent dye DFDA passively diffuses into cells, where the acetates are cleaved by intracellular esterases. […] Thus, values of the fluorescence in the cell cultures are constantly rising in this assay. […] The intracellular ROS levels were measured by using a fluorescence plate reader (BIO-TEK FL600, Bio-Tek Instruments, Inc., Winooski, Vt.), at an excitation wavelength of 485 nm and an emission wavelength of 530 nm.

p57 = test: Western blot of p57 in mammary epithelial cells; format: cell-based, human; conditions: EGCG 15 to 200 μM, 24 h
Procedure: Western blot analysis. The keratinocytes and the mammary epithelial cells were placed in KGM-2 and MEGM, respectively, overnight prior to treatment. Cells were lysed, after 24-hour treatment, in RIPA buffer (1% NP-40, 1% sodium deoxycholate, 0.1% SDS, 0.15 M NaCl, 0.01 M sodium phosphate, pH 7.2, and 1% Trasylol) containing proteinase inhibitors (1 mM PMSF, 1 μg/ml each of aprotinin, leupeptin, and pepstatin). The concentration of protein in each sample was determined using the BioRad DC Protein Assay and spectrophotometry. 50 μg of protein from each sample and a BioRad molecular weight standard marker were run on a 10% SDS-PAGE, followed by transfer to nitrocellulose membranes. Nonspecific binding to the membranes was blocked with 10% nonfat milk. Primary polyclonal (rabbit) antibodies and a horseradish peroxidase-conjugated goat anti-rabbit secondary antibody were used in conjunction with the ECL Chemiluminescence Kit (Amersham Pharmacia Biotech, New Jersey) and membranes were exposed to radiographic films for detection. Western blots were digitized for comparison of the intensity for each band using the ImageTool image analysis software program (University of Texas Health Science Center, San Antonio, Tex.). The integrated density of each band was measured using identical 1480 pixel areas of each Apfa-1 or Actin band at a scale of densities from 0 to 255. […]

p57 (KIP2) [1] = test: Western blot of p57 in OSC2 oral carcinoma cells; format: cell-based, human
Procedure: (§1) Cell treatments. For 24 hours treatments, exponentially growing cells with 40% confluency (to minimize differentiation and spontaneous apoptosis) were either maintained in 50 μM EGCG (2.29 mg/100 ml) or 0.2 mg/ml of GTPPs in tissue culture flasks (25 cm^2). Control flasks contained cells without any treatment. To test whether BaP or NNK interfere with the induction of p57, the human keratinocytes were treated with 0.12 μM BaP, or 10 μM NNK, either alone or in combination with 50 μM EGCG. To examine the time course of p57 induction, cells were treated with 50 μM EGCG and harvested for Western analysis at 30 minutes, 2 hours, 6 hours, and 24 hours. The human keratinocytes were treated when the cell density reached 85-90% confluency (to mimic the epithelium).
(§2) In a parallel series of experiments, treatment with EGCG was performed with 30 micrograms per milliliter (μg/ml) cycloheximide added to the keratinocyte media 30 minutes prior to the addition of EGCG. The dose-response experiments were performed using EGCG concentrations at 30, 50 100, and 200 μM in the culture media for 24 hours.
Western blot analysis. […] The concentration of protein in each sample was determined using the BioRad DC Protein Assay and spectrophotometry. […]

[2] = daily topical 30 mg/ml EGCG for 30 days; cited from earlier work
catalase = test: Catalase activity assay in cell lysates; format: cell-based, human
Procedure: Assays for SOD and catalase activities. Cells (1×10^6 cells/well) were incubated with or without EGCG (50 μM) in FilterCap 50 ml flasks (Nagel Nunc International, Rochester, N.Y.) for 30 minutes at 37° C. After the incubation, cells were harvested and disrupted in 100 μl of 10 mM Tris-HCl (pH 7.4) containing 0.1%(v/v) Triton X-100, 10 μg/ml leupeptin, 10 μg/ml pepstatin A and 100 mM phenylmethylsulfonyl fluoride by three cycles of freezing/thawing. After centrifugation at 17,000×g for 20 minutes at 4° C., the supernatants were used for SOD and catalase assays using the SOD Assay Kit-WST (Dojindo Molecular Technologies, Inc., Gaithersburg, Md.) and the AMPLEX Red Catalase Assay Kit (Molecular Probes), respectively. The activities of SOD and catalase were calibrated using a standard curve prepared with purified human SOD and catalase. The activities of SOD and catalase were expressed as units (U)/10^6 cells.
Assays for SOD and catalase activities. Cells (10^5 cells/well) were incubated with or without EGCG (50 μM) in 24-well culture plates for desirable time periods at 37° C. After the incubation, cells were harvested and disrupted in 100 μl of 10 mM Tris-HCl (pH 7.4) containing 0.1% (v/v) Triton ×-100, 10 μg/ml leupeptin, 10 μg/ml pepstatin A and 100 mM PMSF by three cycles of freezing/thawing. After centrifugation at 17,000×g for 20 minutes at 4° C., the supernatants were used for SOD and catalase assays using the SOD Assay Kit-WST (Molecular Technologies, Inc., Gaithersburg, Md.) and the Amplex Red Catalase Assay Kit (Molecular Probes), respectively. The activities of SOD and catalase were calibrated using a standard curve prepared with purified human SOD and catalase. The activities of SOD and catalase were expressed as units (U)/10^6 cells.

p57 (KIP2) [3] = format: cell-based, human
Procedure: as §1, §2
Western blot analysis. Cells from different treatment groups were lysed in RIPA buffer (1% NP-40, 1% sodium deoxycholate, 0.1% SDS, 0.15 M NaCl, 0.01 M sodium phosphate, pH 7.2, and 1% Trasylol) containing proteinase inhibitors (1 mM PMSF, 1 μg/ml each of aprotinin, leupeptin, and pepstatin). The concentration of protein in each sample was determined using the BioRad DC Protein Assay and spectrophotometry. Fifty micrograms (μg) of protein from each sample and a BioRad molecular weight standard marker were run on a 10% SDS-PAGE, followed by transfer to nitrocellulose membranes. Nonspecific binding to membranes was blocked with 10% nonfat milk. Specific primary polyclonal (rabbit) antibody against p57 and a horse radish peroxidase-conjugated goat anti-rabbit secondary antibody were used in conjunction with the ECL Chemiluminescence Kit and membranes were exposed to radiographic films for detection.

SMILES: O=C(O[C@@H]1Cc2c(O)cc(O)cc2O[C@@H]1c1cc(O)c(O)c(O)c1)c1cc(O)c(O)c(O)c1 [EGCG, (−)-epigallocatechin-3-gallate]
- cell death (NHEK): showed no cell death
- intracellular ROS levels (NS-SV-AC cells): inhibit ROS production at background levels; also recorded: reduced the ROS to background levels
- p57 levels (p57): no significant changes
- p57 levels (p57 (KIP2) [1]; 50 μM EGCG or 0.2 mg/ml GTPPs, 24 h): remained unchanged
- p57 expression, time course and dose response (p57 (KIP2) [1]; EGCG at any time point or concentration): failed to elevate p57 expression
- dermal toxicity [2]: failed to induce dermal toxicity
- catalase activity (catalase; 50 μM EGCG, 30 minutes, NHEK, OSC-2, OSC-4): Significant changes in catalase activity was not observed
- catalase activity in OSC-4 cells (catalase; EGCG, 24-hour treatment period): slight decrease
- catalase and total SOD enzymatic activity levels (catalase; EGCG, 24-hour treatment period, NHEK, OSC-2, OSC-4): had no effect on the enzymatic activity levels
- p57 protein accumulation (p57 (KIP2) [3]; 50 μM EGCG or 0.2 mg/ml GTPPs, 24 h, 40% confluency): accumulated in normal human epithelial cells
- EGCG-stimulated p57 protein accumulation when BaP and NNK were present (p57 (KIP2) [3]; 50 μM EGCG with 0.12 μM BaP or 10 μM NNK): still occurred
- time of peak p57 expression (p57 (KIP2) [3]; 50 μM EGCG, cell density 90%): 6 h
- p57 levels over 24 hours (p57 (KIP2) [3]; 100 μM or 200 μM EGCG, 90% confluency): remained high throughout the 24 hours period
